In US20180282734A1, “METHODS AND COMPOSITIONS FOR THE TREATMENT OF HEAD AND NECK CANCER” (Children's Hospital Medical Center, priority 2015, published 2018):

How the values were obtained:
UMSCC1 cells = experiment: Flow cytometry for cleaved caspase-3 after IRAK1 inhibitor; assay type: cell-based, human; conditions: 72 hours, vs DMSO
Experimental: Flow cytometry for Cleaved Caspase-3. Lentivirally transduced cells were plated at equal densities and collected 48 hours later. Cells were fixed and prepped following the BD FITC Active Caspase-3 Apoptosis kit protocol (BD Biosciences). […] Analysis was performed on a BD FacsCanto and data analyzed on FlowJo software (Tree Star, Ashland, Oreg., USA). Experiments were performed 3 times with standard error of the mean (SEM) represented. IRAK1 inhibitor. UMSCC1 cells were plated at equal densities and IRAK1 inhibitor (IRAK-1/4 inhibitor, 15409, Sigma-Aldrich, St. Louis, Mo., USA) added the same day for caspase-3 flow cytometry experiments. DMSO was added in equal volume for a control. Cells and media were collected 72 hours later and prepared and analyzed as above. For the time-course experiment, cells were plated and inhibitor was added the following day, with protein collected at 24, 48, and 72 hours and analyzed by western blot for IRAK1 inhibition.

MDS = conditions: cited from earlier work
IRAK1 = molecular target: T1, IRAK1 (Homo sapiens, UniProt P51617); experiment: Western blot for phospho-IRAK1 after IRAK-1/4 inhibitor treatment (time course); assay type: cell-based; conditions: UMSCC1 and UMSCC47 cells
T1 construct: endogenous in cells; host or cells: UMSCC1 and UMSCC47
Experimental: Western blotting. Whole cell lysates were harvested using Laemmli buffer and a total of 20 μg of protein was analyzed as described previously. Membranes were probed with DEK (1:1000, BD Biosciences, San Jose, Calif., USA), IRAK1 (1:1000, Santa Cruz Biotechnology, Dallas, Tex., USA (sc-7883)), TRAF6 (1:1000, Santa Cruz (sc-7221)), phospho-IRAK1 (Thr209, 1:800, Assay Biotechnology Company (A1074), Sunnyvale, Calif., USA), phospho-p38 (1:500, Cell Signaling Technologies (4361)), p38 (1:1000, Cell Signaling Technologies (9212)), phospho-ERK1/2 (1:1000, Cell Signaling Technologies (4377)), ERK1/2 (1:1000, Cell Signaling Technologies (4695)), phospho-IKKa/r3 (1:500, Cell Signaling Technologies (2697)), IKKa (1:1000, Cell Signaling Technologies (2682)), phospho-hcBa (1:500, Cell Signaling Technologies (9246)), hcBa (1:1000, Cell Signaling Technologies (4812)), a-tubulin-HRP (1:10,000 Cell Signaling Technologies (9099)), actin (1:10,000 a gift from James Lessard), and GAPDH (1:1000, Cell Signaling Technologies (5174)).
IRAK1 inhibitor. […]
Cells and media were collected 72 hours later and prepared and analyzed as above. For the time-course experiment, cells were plated and inhibitor was added the following day, with protein collected at 24, 48, and 72 hours and analyzed by western blot for IRAK1 inhibition.

melanoma cells = conditions: in vitro and in vivo; cited from earlier work
IRAK1 and IRAK4 = conditions: cited from earlier work

T1 sequence (P51617 whole entry): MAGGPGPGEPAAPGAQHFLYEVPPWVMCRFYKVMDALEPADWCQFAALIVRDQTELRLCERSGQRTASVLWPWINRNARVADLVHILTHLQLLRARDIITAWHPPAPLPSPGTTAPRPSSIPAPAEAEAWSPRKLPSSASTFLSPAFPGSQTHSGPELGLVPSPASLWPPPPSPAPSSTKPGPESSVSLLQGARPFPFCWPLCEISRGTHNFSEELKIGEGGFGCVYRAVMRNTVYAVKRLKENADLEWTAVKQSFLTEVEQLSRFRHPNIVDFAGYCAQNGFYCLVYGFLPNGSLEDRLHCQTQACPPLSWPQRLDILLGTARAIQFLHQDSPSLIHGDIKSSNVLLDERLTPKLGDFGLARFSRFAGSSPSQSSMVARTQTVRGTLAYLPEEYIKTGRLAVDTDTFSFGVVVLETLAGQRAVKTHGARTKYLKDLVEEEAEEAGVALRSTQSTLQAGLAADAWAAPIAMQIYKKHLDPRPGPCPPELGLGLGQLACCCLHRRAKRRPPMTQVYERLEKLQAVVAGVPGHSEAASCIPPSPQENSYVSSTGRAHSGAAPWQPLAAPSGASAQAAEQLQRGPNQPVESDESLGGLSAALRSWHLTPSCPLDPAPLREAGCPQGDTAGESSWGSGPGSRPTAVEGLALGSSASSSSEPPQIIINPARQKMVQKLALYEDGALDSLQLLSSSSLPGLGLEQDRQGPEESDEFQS

## O=C(Nc1nc2ccccc2n1CCN1CCOCC1)c1cccc([N+](=O)[O-])c1 [IRAK-1/4 inhibitor, N-(2-morpholinylethyl)-2-(3-nitrobenzoylamido)-benzimidazole]
UMSCC1 cells
  apoptosis (cleaved caspase-3): Significantly increased apoptosis
UMSCC1 cells; listed as IRAK1-inhibitor
  apoptosis (cleaved caspase-3): increases apoptosis
MDS
  signaling and cell viability in MDS: inhibit signaling and cell viability
IRAK1; 1 μM or 10 μM final concentrations, indicated time-points, vs DMSO
  IRAK1 activation (phosphorylation of IRAK1, western blot): reduces IRAK1 activation
IRAK1; 10 μM, 24-72 hours post-treatment
  activation of IRAK1 (phosphorylation of IRAK1, western blot): attenuated activation of IRAK1
Melanoma cells
  apoptosis in melanoma cells: increase apoptosis
IRAK1 and IRAK4
  kinase selectivity: selective for IRAK1 and IRAK4 and shows little specificity for other kinases
